The text below walks through data of article PMC9921564, “Novel Indole-Containing Hybrids Derived from Millepachine: Synthesis, Biological Evaluation and Antitumor Mechanism Study” (Molecules, 2023).

By half-life is commonly meant how long it takes for the measured level to halve. A higher half-life goes with slow decline. In general, fraction remaining refers to the share of the starting amount still present when the sample was taken. A high value points to greater stability.

One series has as its system A549 cells. Description: intracellular microtubule morphology by immunofluorescence. The series is classed as cell-based, human. The conditions noted are these: A549, 10, 20 and 50 nM, 12 h. The method, then:
Tubulin–microtubule homeostasis is crucial for cell mitosis.
Figure 2 Effect of compound 14b on tubulin. […] The experiments were performed at least three times, and representative images are shown. Scale bars are 10 μm. […] The backbone of tubulin is shown in ribbon representation (α-tubulin, yellow; β-tubulin, green). […] The data were shown as mean ± SE (standard error) of at least three independent experiments.
S Ⅳ. Biological evaluation methods
The cells grown in logarithmical phase were seeded in 96-well plates with the density of 5×10^3/well.
After 24 h, the medium containing different concentrations of tested compounds were added for another 48 h. Then, CCK-8 reagents were added to cells and continued to culture for 2 h. The optical density was recorded with a microplate reader at 570 nm (Thermo Scientific, Varioskan LUX). All the experiments were repeated independently at least three times and the IC50 values were calculated […]
S2. In vitro tubulin polymerization inhibition assay
The in vitro tubulin polymerization inhibition assay was conducted according to the manufacturer ’s instruction (cytoskeleton, cat. no. BK011P). Briefly, 5 μL of the tested compounds at the indicated

For series [1], the system named is C42B/ENZR (C42b cell line resistant to Enzalutamide). As to the kind of experiment: CCK-8 cytotoxicity, C42B/ENZR. Type of series: cell-based. Conditions: Homo sapiens; 48 h, CCK-8, Enzalutamide-resistant; read-out: IC50, Mean ± SE, C42B/ENZR. The method, then:
Besides the high cytotoxicity, drug resistance is the other limiting factor of chemotherapeutics. In this study, the cytotoxicities of compound 14b towards five kinds of drug-resistant cancer cell lines were also evaluated. Except three kinds of cell lines that are resistant to three drugs commonly used in clinical practice, two kinds of cell lines that are resistant to MTAs were also evaluated.
A549 (non-small-cell-lung cancer cell line), Caski (human epithelial cervical cancer cell line), HepG2 (human liver carcinoma cell line), MCF-7 (human breast carcinoma cell line), C42B (human prostate cancer line C42B), L-02 (human normal hepatocytes), RWPE-1 (human prostate epithelial cells) and MCF-10A (human normal mammary epithelial cells) were obtained from National Collection of Authenticated Cell Cultures (Shanghai, China). […]
After 24 h, the medium containing different concentrations of tested compounds were added for another 48 h. […] The optical density was recorded with a microplate reader at 570 nm (Thermo Scientific, Varioskan LUX). All the experiments were repeated independently at least three times and the IC50 values were calculated […]
The fluorescence intensity enhancement (emission wavelength is 410 nm, excitation wavelength is 340 nm) was recorded every 60 s for 60 min in a multifunction microplate reader (Molecular Devices, Flex Station 3). […]

Series [2] is described as follows: metabolic stability in human liver microsomes. Type of series: in vitro ADME. The method, then: Metabolic stability is one of the most important properties in drug development. In this study, commercially available human liver microsomes were used to evaluate the metabolic stability of compound 14b. After incubation with human liver microsomes at 37 °C in vitro for an indicated time in a buffer solution containing a NADPH regenerating system, the residue of 14b was monitored by HPLC. CA-4 was used as the reference compound. […] As well known, a short half-life means a low bioavailability in vivo and is required for frequent administration with a high dose, which might result in drug accumulation and may produce related toxicity.
(In general: Liver microsomes are vesicles of endoplasmic reticulum, rich in cytochrome P450 enzymes.)

Each structure is given as a SMILES string.

Take `COc1ccc(C(=O)c2ccc3c(ccn3C)c2)c2c1C=CC(C)(C)O2` [compound 14b, (5-methoxy-2,2-dimethyl-2H-chromen-8-yl)(1-methyl-1H-indol-5-yl)methanone]: the “intracellular tubulin-microtubule homeostasis” value with A549 cells was “heavily disturbed”. The IC50 in series [1] was found to be 42 ± 11 nM. Besides, in series [2], the half-life was determined as 198 min and the “metabolic stability” value is “relatively stable in the liver microsomes”. In series [2] (37 °C, NADPH regenerating system, 180 min), this compound came in with a Remaining% of 56.17%. The fraction remaining at 0.5 h in series [2] (human, liver microsomes, 37 °C, NADPH regenerating system, 30 min) came out at 96.2%. Further, the amount remaining at 1 h in series [2] (human, liver microsomes, 37 °C, NADPH regenerating system, 60 min) came out at 91.4%. This compound came in with a fraction remaining at 1.5 h in series [2] (human, liver microsomes, 37 °C, NADPH regenerating system, 90 min) of 84.1%. In series [2] (human, liver microsomes, 37 °C, NADPH regenerating system, 120 min), the share remaining at 2 h was 74.5%. In series [2] (human, liver microsomes, 37 °C, NADPH regenerating system, 150 min), this compound gave an amount remaining at 2.5 h of 67.8%. Further, in series [2] (human, liver microsomes, 37 °C, NADPH regenerating system, 180 min), the amount remaining at 3 h was 50.6%. In series [2] (human, liver microsomes, 37 °C, NADPH regenerating system, 240 min), this compound showed an amount remaining at 4 h of 43.4%.
